Results on 2 compounds are retold here after BindingDB's records for doi:10.1021/jm000484+ (Abbott Laboratories, 2001).

Test [1] is described as follows: In vitro immunosuppression in stimulated T cells expressing Voltage-gated potassium channel subunit Kv1.3; Range is 1-10.
A short description of test [2]: In vitro immunosuppression in stimulated T cells expressing Voltage-gated potassium channel subunit Kv1.3.

The term IC50 denotes the midpoint of a concentration-inhibition curve. For `CCNC(=O)c1cc(/C=C/CCc2ccccc2)ccc1-c1ccc(Cl)cc1` [4'-Chloro-4-((E)-4-phenyl-but-1-enyl)-biphenyl-2-carboxylic acid ethylamide], the IC50 in test [1] amounted to 1000 nM. A word on the EC50: it is the concentration needed to bring the measured effect to its halfway point. Low readings indicate a more potent agent, high ones a less potent agent. In turn, `CCC/N=c1\ccn(Cc2ccccc2)c2cc(Cl)ccc12` came in with an EC50 in test [2] of 1000 nM. That is a single-digit micromolar value.
